Experimental data as given in patent publication US12486269B2 (Aconcagua Bio, Inc., priority 2024, dated 2025).

Assays:
[1] = target: T1, COS-7/AMY3 (human calcitonin receptor (CTR) and RAMP3) (Homo sapiens, UniProt O60896+P30988); assay: Amylin Receptor cAMP Assay II; type: cell-based; settings: values marked **: Amylin Receptor cAMP Assay II; COS-7/AMY3 cells, cAMP dynamic 2 kit, 30 min; read-out: Amylin Receptor cAMP Stimulation Activity: EC50
T1 construct: expressed in transfected cells; host or cells: COS-7
Method in brief: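 Agonist-induced cAMP was quantified by HTRF ratio at 665/615 nm and expressed as % of the window from vehicle to MAX control. Stimulation lasted 30 min at 37 °C in HBSS/20 mM HEPES/0.5 mM IBMX/0.1% casein, using stable human CTR+RAMP3 (AMY3) COS-7 cells at 2000 per well.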

[2] = target: T2, human calcitonin receptor (CTR) (Homo sapiens, UniProt P30988); assay: Calcitonin Receptor (CTR) cAMP Assay; type: cell-based; settings: COS7-human CTR Clone #2 stable cell line, cAMP dynamic 2 kit, 30 min; read-out: Calcitonin Receptor cAMP Stimulation Activity: EC50
T2 construct: expressed in transfected cells; host or cells: COS-7 (COS7-human CTR Clone #2)
T2 sequence (P30988 25-474): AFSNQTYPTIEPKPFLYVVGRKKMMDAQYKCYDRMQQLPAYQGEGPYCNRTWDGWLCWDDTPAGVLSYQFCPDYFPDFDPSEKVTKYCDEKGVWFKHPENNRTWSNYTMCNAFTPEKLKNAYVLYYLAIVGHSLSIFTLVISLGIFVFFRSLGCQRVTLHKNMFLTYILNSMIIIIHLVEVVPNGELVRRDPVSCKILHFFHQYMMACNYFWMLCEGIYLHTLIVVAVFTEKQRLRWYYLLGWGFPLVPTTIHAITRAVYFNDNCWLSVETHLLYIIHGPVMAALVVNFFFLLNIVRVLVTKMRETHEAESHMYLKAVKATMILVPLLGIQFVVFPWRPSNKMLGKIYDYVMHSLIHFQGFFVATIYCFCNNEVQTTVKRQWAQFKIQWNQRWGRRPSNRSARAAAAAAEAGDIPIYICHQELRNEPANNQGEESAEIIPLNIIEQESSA
Method in brief: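 cAMP accumulation was measured by HTRF cAMP dynamic 2 read at 665/615 nm, 1 h at room temperature, with results scaled between vehicle and positive control. Before detection, COS7-human CTR stable cells were stimulated 30 min at 37 °C with compound (4-fold dilutions) in IBMX-containing HBSS/HEPES/casein buffer.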

T1 sequence (O60896 24-148, one chain of several): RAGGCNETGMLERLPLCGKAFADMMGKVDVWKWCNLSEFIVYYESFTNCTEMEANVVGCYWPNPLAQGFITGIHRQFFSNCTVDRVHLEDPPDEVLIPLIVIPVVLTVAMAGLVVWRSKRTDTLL

Row | SMILES | EC50 [1] | EC50 [2]
1 | O=C1c2c(nc(CCc3ccc(F)cc3)c(-c3n[nH]c(=O)o3)c2-c2ccc3c(Cc4ccc(F)cn4)noc3c2)[C@@H]2CCCN12 [Compound 222, (S)-5-(2-(4-fluorophenethyl)-4-(3-((5-fluoropyridin-2-yl)methyl)benzo[d]isoxazol-6-yl)-5-oxo-7,8,9,9a-tetrahydro-5H-pyrido[2,3-a]pyrrolizin-3-yl)-1,3,4-oxadiazol-2(3H)-one] | 511 nM | 12.8 nM
2 | O=C1c2c(nc(CCc3ccc(F)cc3)c(-c3n[nH]c(=O)o3)c2-c2ccc3c(c2)oc(=O)n3Cc2ncc(Cl)cc2F)[C@@H]2CCCN12 [Compound 208, (S)-3-((5-chloro-3-fluoropyridin-2-yl)methyl)-6-(2-(4-fluorophenethyl)-5-oxo-3-(5-oxo-4,5-dihydro-1,3,4-oxadiazol-2-yl)-7,8,9,9a-tetrahydro-5H-pyrido[2,3-a]pyrrolizin-4-yl)benzo[d]oxazol-2(3H)-one] | 74.4 nM | 0.331 nM
3 | N#Cc1ccc(Cn2c(=O)oc3cc(-c4c5c(nc(CCc6ccc(F)cc6)c4-c4n[nH]c(=O)o4)[C@@H]4CCCN4C5=O)ccc32)nc1 [Compound 176, 6-[[6-[(9aS)-2-[2-(4-fluorophenyl)ethyl]-5-oxo-3-(2-oxo-3H-1,3,4-oxadiazol-5-yl)-7,8,9,9a-tetrahydropyrido[2,3-a]pyrrolizin-4-yl]-2-oxo-1,3-benzoxazol-3-yl]methyl]pyridine-3-carbonitrile] | 10.7 nM | 0.557 nM
4 | COc1cccc2c1CC[C@H]2Nc1nc(C(F)F)cc2cc(-c3c4c(nc(CCc5ccc(F)cc5)c3-c3n[nH]c(=O)o3)[C@@H]3CCCN3C4=O)sc12 [Compound 188, 5-((S)-4-(5-(difluoromethyl)-7-(((R)-4-methoxy-2,3-dihydro-1H-inden-1-yl)amino)thieno[2,3-c]pyridin-2-yl)-2-(4-fluorophenethyl)-5-oxo-7,8,9,9a-tetrahydro-5H-pyrido[2,3-a]pyrrolizin-3-yl)-1,3,4-oxadiazol-2(3H)-one] | 6.57 nM | 0.223 nM
5 | COc1cccc2c1CC[C@H]2Nc1nc(C(F)(F)F)cc2cc(-c3c4c(nc(CCc5ccc(F)cc5)c3-c3n[nH]c(=O)o3)[C@@H]3CCCN3C4=O)sc12 [Compound 215, 5-((S)-2-(4-fluorophenethyl)-4-(7-(((R)-4-methoxy-2,3-dihydro-1H-inden-1-yl)amino)-5-(trifluoromethyl)thieno[2,3-c]pyridin-2-yl)-5-oxo-7,8,9,9a-tetrahydro-5H-pyrido[2,3-a]pyrrolizin-3-yl)-1,3,4-oxadiazol-2(3H)-one] | 7.23 nM | 0.406 nM
6 | COc1cc2c(cc1F)[C@H](Nc1nccc3cc(-c4c5c(nc(CCc6ccc(F)cc6)c4-c4n[nH]c(=O)o4)[C@@H]4CCCN4C5=O)sc13)CC2 [Compound 257, 5-((S)-4-(7-(((R)-6-fluoro-5-methoxy-2,3-dihydro-1H-inden-1-yl)amino)thieno[2,3-c]pyridin-2-yl)-2-(4-fluorophenethyl)-5-oxo-7,8,9,9a-tetrahydro-5H-pyrido[2,3-a]pyrrolizin-3-yl)-1,3,4-oxadiazol-2(3H)-one] | 10.2 nM | 0.696 nM
7 | COc1cccc2c1CC[C@H]2Nc1nccc2cc(-c3c(-c4n[nH]c(=O)o4)c(CCc4ccc(F)cc4)nc4c3S(=O)(=O)C[C@H]4C(C)C)sc12 [Compound 237, 5-((S)-5-(4-fluorophenethyl)-3-isopropyl-7-(7-(((R)-4-methoxy-2,3-dihydro-1H-inden-1-yl)amino)thieno[2,3-c]pyridin-2-yl)-1,1-dioxido-2,3-dihydrothieno[3,2-b]pyridin-6-yl)-1,3,4-oxadiazol-2(3H)-one] | 18.5 nM | 0.591 nM
8 | O=C1c2c(nc(CCC34CCC(CC3)OC4)c(-c3n[nH]c(=O)o3)c2-c2cnc3c(ccn3Cc3ncc(Cl)cc3F)c2)[C@@H]2CCCN12 [Compound 233, (S)-5-(2-(2-(2-oxabicyclo[2.2.2]octan-4-yl)ethyl)-4-(1-((5-chloro-3-fluoropyridin-2-yl)methyl)-1H-pyrrolo[2,3-b]pyridin-5-yl)-5-oxo-7,8,9,9a-tetrahydro-5H-pyrido[2,3-a]pyrrolizin-3-yl)-1,3,4-oxadiazol-2(3H)-one] | 1820 nM | 36.3 nM
9 | COc1cccc2c1CC[C@H]2Nc1nccc2cc(-c3c4c(nc(CCc5ccc(F)cc5)c3-c3noc(=O)[nH]3)[C@@H]3CCCN3C4=O)sc12 [Compound 104] | 25.5 nM | 0.926 nM
10 | COc1c(Cl)ccc2c1CC[C@H]2Nc1nccc2cc(-c3c4c(nc(CCc5ccc(F)cc5)c3-c3n[nH]c(=O)o3)[C@@H]3CCCN3C4=O)sc12 [Compound 173, 5—((S)-4-(7-(((R)-5-chloro-4-methoxy-2,3-dihydro-1H-inden-1-yl)amino)thieno[2,3-c]pyridin-2-yl)-2-(4-fluorophenethyl)-5-oxo-7,8,9,9a-tetrahydro-5H-pyrido[2,3-a]pyrrolizin-3-yl)-1,3,4-oxadiazol-2(3H)-one] | 16.9 nM | 0.788 nM
11 | O=C1c2c(nc(CCc3ccc(F)cc3)c(-c3n[nH]c(=O)o3)c2-c2cc3ccnc(N[C@@H]4CCOc5c(F)cc(F)cc54)c3s2)C23CC(CN12)C3 [Compound 293, (R)-5-(4-(7-((6,8-difluorochroman-4-yl)amino)thieno[2,3-c]pyridin-2-yl)-2-(4-fluorophenethyl)-5-oxo-8,9-dihydro-5H,7H-8,9a-methanopyrido[2,3-a]pyrrolizin-3-yl)-1,3,4-oxadiazol-2(3H)-one] | 2.68 nM | 0.0485 nM
12 | C[C@@H](Nc1nccc2cc(-c3c4c(nc(CCc5ccc(F)cc5)c3-c3n[nH]c(=O)o3)[C@@H]3CCCN3C4=O)sc12)c1ccc(F)c(F)c1 [Compound 227, 5-((S)-4-(7-(((R)-1-(3,4-difluorophenyl)ethyl)amino)thieno[2,3-c]pyridin-2-yl)-2-(4-fluorophenethyl)-5-oxo-7,8,9,9a-tetrahydro-5H-pyrido[2,3-a]pyrrolizin-3-yl)-1,3,4-oxadiazol-2(3H)-one] | 33.3 nM | 1.67 nM
13 | COc1cccc2c1CC[C@H]2Nc1nccc2cc(-c3c(-c4n[nH]c(=O)o4)c(CCc4ccc(F)cc4)nc4c3c(=O)n3n4CCC3)sc12 [Compound 155] | 33.5 nM | 1.21 nM

Other lines, results leading:

Row | EC50 [1] | EC50 [2] | SMILES
14 | 1.78 nM | 0.0975 nM | COc1c(F)ccc2c1CC[C@H]2Nc1nccc2sc(-c3c4c(nc(CCc5ccc(F)cc5)c3-c3n[nH]c(=O)o3)C35CC(CN3C4=O)C5)cc12 [Compound 269, (R)-5-(4-(4-((5-fluoro-4-methoxy-2,3-dihydro-1H-inden-1-yl)amino)thieno[3,2-c]pyridin-2-yl)-2-(4-fluorophenethyl)-5-oxo-8,9-dihydro-5H,7H-8,9a-methanopyrido[2,3-a]pyrrolizin-3-yl)-1,3,4-oxadiazol-2(3H)-one]
15 | 1120 nM | 271 nM | O=C1c2c(nc(CCc3ccc(F)cc3)c(-c3noc(=O)[nH]3)c2-c2ccc3c(c2)CC[C@H]3OCc2ccc(F)c(F)c2)[C@@H]2CCCN12 [Compound 113]
16 | 248 nM | 7.9 nM | CC(c1ccc(C#N)cn1)N1C(=O)C(C)(C)Oc2cc(-c3c4c(nc(CCc5ccc(F)cc5)c3-c3n[nH]c(=O)o3)[C@@H]3CCCN3C4=O)ccc21 (stereo partly drawn) [Compound 252, 6-(1-(7-((S)-2-(4-fluorophenethyl)-5-oxo-3-(5-oxo-4,5-dihydro-1,3,4-oxadiazol-2-yl)-7,8,9,9a-tetrahydro-5H-pyrido[2,3-a]pyrrolizin-4-yl)-2,2-dimethyl-3-oxo-2H-benzo[b][1,4]oxazin-4(3H)-yl)ethyl)nicotinonitrile]
17 | 566 nM | 28.8 nM | CN(Cc1ccc(F)c(F)c1)C(=O)c1ccc(-c2c3c(nc(CCc4ccc(F)cc4)c2-c2noc(=O)[nH]2)[C@@H]2CCCN2C3=O)s1 [Compound 115]
18 | 0.196 nM | 0.00979 nM | COc1c(F)ccc2c1C[C@@H](F)[C@H]2Nc1nc(C)cc2cc(-c3c4c(nc(CCc5ccc(F)cc5)c3-c3n[nH]c(=O)o3)C35CC(CN3C4=O)C5)sc12 [Compound 196, 5-(4-(7-(((1S,2R)-2,5-difluoro-4-methoxy-2,3-dihydro-1H-inden-1-yl)amino)-5-methylthieno[2,3-c]pyridin-2-yl)-2-(4-fluorophenethyl)-5-oxo-8,9-dihydro-5H,7H-8,9a-methanopyrido[2,3-a]pyrrolizin-3-yl)-1,3,4-oxadiazol-2(3H)-one]
19 | 11.2 nM | 0.588 nM | CC(C)C1CS(=O)(=O)c2c1nc(CCc1ccc(F)cc1)c(-c1n[nH]c(=O)o1)c2-c1ccc2c(c1)oc(=O)n2Cc1ccc(C#N)cn1 (centres unmarked) [Compound 163, 6-((6-(5-(4-fluorophenethyl)-3-isopropyl-1,1-dioxido-6-(5-oxo-4,5-dihydro-1,3,4-oxadiazol-2-yl)-2,3-dihydrothieno[3,2-b]pyridin-7-yl)-2-oxobenzo[d]oxazol-3(2H)-yl)methyl)nicotinonitrile]
